Experimental data from patent US20230150997A1, “EIF4E INHIBITORS AND USES THEREOF” (PIC Therapeutics, Inc., priority 2021, published 2023).
pIC50: −log10 of the molar value.

Target: T1, Human eIF4E (Homo sapiens, UniProt P06730)
T1 construct: Human eIF4E (aa 28-217) with a C-terminal His-tag; made in house
Test: Human eIF4E/4G2 binding assay (TR-FRET)
Conditions: purified human eIF4E (aa 28-217), biotin labeled 4G2 peptide, 4 hours preincubation at room temperature
Method: Example 3. Compound Testing in Human eIF4E/4G2 Binding Assay
Human eIF4E (aa 28-217) with a C-terminal His-tag was expressed in E. coli in inclusion bodies. The protein was solubilized with 8 M urea and purified under denaturing conditions using nickel-charged HisTrap HP columns (GE Healthcare). The purified protein was then refolded by diluting in 20 mM Hepes pH 7.0, 0.5 M NaCl, 1 mM DTT, 1 mM EDTA, 0.5 M arginine plus 6 M urea, and then dialyzing overnight into the same buffer without the urea. The protein was further dialyzed into 20 mM Hepes, pH 6.5, 50 mM NaCl, 1 mM EDTA, 1 mM DTT, and concentrated using Hitrap SP sepharose FF columns (GE Healthcare). The concentrated protein was dialyzed into 20 mM Hepes, pH 7.0, 0.5 M NaCl, 5 mM DTT and 10% glycerol, and stored at -80° C. until use.
Test compounds (3.43 mM stock in DMSO) were diluted 2-fold in series in DMSO (10 concentration points). Compound solutions (1.2 µl/well) were added into black 384-well polypropylene microplates (Matrix, Thermal Scientific). Twenty-two microliters per well of Assay Buffer (50 mM NaPi, pH 6.5, 50 mM KCl, 1 mM DTT and 0.5 mg/ml gamma globulin) and eight microliters per well of 82.5 nM purified eIF4E in Assay Buffer were added. The samples were incubated at room temperature (20-23° C.) for 4 hours. Biotin labeled 4G2 peptide (Ac-Lys-Gln-Tyr-Asp-Arg-Glu-Phe-Leu-Leu-Asp-Phe-Gln-Phe-Met-Pro-Lys(Aha-Bio)-NH2, 1.75 µM stock in DMSO) was diluted to 0.14 µM in Assay Buffer (without DTT) and 5 µl/well was added. The samples were incubated at room temperature for 20 min. Five microliters per well of 6.4 nM Eu-streptavidin (Eu-SA, Perkin Elmer) and 80 nM Allophycocyanin (APC)-anti His antibody (Columbia Biosciences) in Assay Buffer (without DTT) were then added and the samples were incubated at room temperature for 20 min.
Assay signals were monitored by reading excitation at 340 nm and emission fluorescence at 615 nm and 665 nm on an Envision reader (Perkin Elmer). Normalized TR-FRET (time-resolved fluorescence resonance energy transfer) assay signal (Rn) was calculated by the formula: Rn = [(A-Ba-C x D)/(D-Bd)] x (Dc- Bd) • Where A is the fluorescence intensity of the sample at 665 nm, • D is the fluorescence intensity of the sample at 615 nm, • Ba and Bd are plate backgrounds at 665 nm and 615 nm, respectively, • Dc is the fluorescence intensity of 0.78 nM Eu-SA in the assay buffer at 615 nm • The cross-talk factor (C) is determined by the following formula: • C = (Ac- Ba)/(Dc-Bd) • Where Ac is the fluorescence intensity of 0.78 nM Eu-SA in the assay buffer at 665 nm.
IC50 values were calculated using xLFit program (IDBS). Table 2 below lists […] of some compounds, wherein A represents IC50 ≤ 0.5 µM; B represents 0.5 uM < IC50 ≤ 1 µM; and C represents IC50 > 1 µM.

T1 sequence (P06730 28-217): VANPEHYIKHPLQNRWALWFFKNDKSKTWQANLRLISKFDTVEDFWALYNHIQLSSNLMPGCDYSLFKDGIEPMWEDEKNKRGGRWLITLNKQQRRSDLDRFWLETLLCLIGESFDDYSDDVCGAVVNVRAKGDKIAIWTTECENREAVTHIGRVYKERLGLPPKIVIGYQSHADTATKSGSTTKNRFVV

SMILES | pIC50
COCCOc1ccc(-c2nc(Nc3ncc(-c4cccs4)cc3C(=O)O)sc2CC(C)(C)C)cc1F [I-65] | ≥ 6.30
CC(C)Cc1sc(Nc2ncc(-c3cccs3)cc2C(=O)O)nc1-c1ccc(OCCOC(C)C)c(F)c1 [I-67] | ≥ 6.30
COc1ccc(-c2nc(Nc3ncc(-c4cccs4)cc3C(=O)O)sc2CCC(C)C)cc1F [I-69] | ≥ 6.30
COc1ccc(-c2nc(Nc3cnc(-c4cccs4)cc3C(=O)O)sc2CC(C)C)cc1F [I-71] | 6.00 to 6.30
COc1cc(-c2nc(Nc3ncc(-c4cccs4)cc3C(=O)O)sc2CC(C)C)ccc1Cl [I-74] | ≥ 6.30
COc1cc(-c2nc(Nc3ncc(-c4cccs4)cc3C(=O)O)sc2CC(C)C)ccc1C(F)(F)F [I-77] | ≥ 6.30
CCOc1cccc(-c2nc(Nc3ncc(-c4cccs4)cc3C(=O)O)sc2CC(C)C)c1 [I-79] | ≥ 6.30
CCOc1cc(-c2nc(Nc3ncc(-c4cccs4)cc3C(=O)O)sc2CC(C)C)ccc1Cl [I-80] | ≥ 6.30
CCOc1cc(-c2nc(Nc3ncc(-c4cccs4)cc3C(=O)O)sc2CC(C)C)ccc1F [I-81] | ≥ 6.30
COc1cc(-c2nc(Nc3ncc(-c4cccs4)cc3C(=O)O)sc2CCC(C)C)ccc1F [I-82] | ≥ 6.30
COCCOc1cc(-c2nc(Nc3ncc(-c4cccs4)cc3C(=O)O)sc2CCC(C)C)ccc1Cl [I-83] | ≥ 6.30
CC(C)Cc1sc(Nc2ncc(-c3cccs3)cc2C(=O)O)nc1-c1ccc(F)c(OC(C)C)c1 [I-86] | ≥ 6.30
COc1cc(-c2nc(Nc3ncc(-c4cccs4)cc3C(=O)O)sc2CCC(C)C)ccc1C(F)(F)F [I-88] | ≥ 6.30
CCOc1cccc(-c2nc(Nc3ncc(-c4cccs4)cc3C(=O)O)sc2CC(C)(C)C)c1 [I-98] | ≥ 6.30
CC(C)Cc1sc(Nc2ncc(-c3cccs3)cc2C(=O)O)nc1-c1cccc(OCCF)c1 [I-103] | ≥ 6.30
COc1cc(C)cc(-c2nc(Nc3ncc(-c4cccs4)cc3C(=O)O)sc2CC(C)C)c1 [I-109] | ≥ 6.30
CCCc1sc(Nc2ncc(-c3cccs3)cc2C(=O)O)nc1-c1cccc(OCC)c1 [I-112] | ≥ 6.30
CCOc1cccc(-c2nc(Nc3ncc(-c4ccco4)cc3C(=O)O)sc2CC(C)C)c1 [I-115] | ≥ 6.30
COCCOc1cc(C)cc(-c2nc(Nc3ncc(-c4cccs4)cc3C(=O)O)sc2CC(C)C)c1 [I-118] | ≥ 6.30
COCCOc1cccc(-c2nc(Nc3ncc(-c4cccs4)cc3C(=O)O)sc2CC(C)C)c1 [I-122, 2-((5-isobutyl-4-(3-(2-methoxyethoxy)phenyl)thiazol-2-yl)amino)-5-(thiophen-2-yl)nicotinic acid] | ≥ 6.30
CC(C)Cc1sc(Nc2ncc(-c3cccs3)cc2C(=O)O)nc1-c1ccc2c(c1)OCO2 [I-124, 2-((4-(benzo[d][1,3]dioxol-5-yl)-5-isobutylthiazol-2-yl)amino)-5-(thiophen-2-yl)nicotinic acid] | ≥ 6.30
CC(C)Cc1sc(Nc2ncc(-c3cccs3)cc2C(=O)O)nc1-c1ccc2c(c1)OC(C)(C)O2 [I-125] | ≥ 6.30
CC(C)Cc1sc(Nc2ncc(-c3cccs3)cc2C(=O)O)nc1-c1cccs1 [I-126] | ≥ 6.30
CCOc1cccc(-c2nc(Nc3cc(C(=O)O)c(-c4cccs4)cn3)sc2CC(C)C)c1 [I-130, 2-((4-(3-ethoxyphenyl)-5-isobutylthiazol-2-yl)amino)-5-(thiophen-2-yl)isonicotinic acid] | 6.00 to 6.30

Next, values leading:

pIC50 | SMILES
≥ 6.30 | CCOCCOc1ccc(-c2nc(Nc3ncc(-c4cccs4)cc3C(=O)O)sc2CC(C)C)cc1F [I-66]
6.00 to 6.30 | COCCOCCOc1ccc(-c2nc(Nc3ncc(-c4cccs4)cc3C(=O)O)sc2CC(C)C)cc1F [I-68]
≥ 6.30 | COc1ccc(-c2nc(Nc3ccc(-c4cccs4)nc3C(=O)O)sc2CC(C)C)cc1F [I-70]
≥ 6.30 | COCCOc1ccc(-c2nc(Nc3ncc(-c4cccs4)cc3C(=O)O)sc2CC2CCCCC2)cc1F [I-72]
6.00 to 6.30 | COc1cc(-c2nc(Nc3ncc(-c4cccs4)cc3C(=O)O)sc2CC(C)C)ccc1F [I-73]
≥ 6.30 | COCCOc1cc(-c2nc(Nc3ncc(-c4cccs4)cc3C(=O)O)sc2CC(C)C)ccc1C(F)(F)F [I-76, 2-((5-isobutyl-4-(3-(2-methoxyethoxy)-4-(trifluoromethyl)phenyl)thiazol-2-yl)amino)-5-(thiophen-2-yl)nicotinic acid]
≥ 6.30 | COc1cccc(-c2nc(Nc3ncc(-c4cccs4)cc3C(=O)O)sc2CC(C)C)c1 [I-78]
≥ 6.30 | COCCOc1cc(-c2nc(Nc3ncc(-c4cccs4)cc3C(=O)O)sc2CCC(C)C)ccc1F [I-84]
≥ 6.30 | CC(C)Cc1sc(Nc2ncc(-c3cccs3)cc2C(=O)O)nc1-c1ccc(F)c(OCCOC(C)C)c1 [I-87]
≥ 6.30 | CC(C)COc1cc(-c2nc(Nc3ncc(-c4cccs4)cc3C(=O)O)sc2CC(C)C)ccc1F [I-89]
≥ 6.30 | COc1cc(-c2nc(Nc3ncc(-c4cccs4)cc3C(=O)O)sc2CCC(C)C)ccc1Cl [I-90]
≥ 6.30 | COc1cc(-c2nc(Nc3ncc(-c4cccs4)cc3C(=O)O)sc2CC(C)(C)C)ccc1F [I-91]
≥ 6.30 | CCOc1cc(-c2nc(Nc3ncc(-c4cccs4)cc3C(=O)O)sc2CC(C)(C)C)ccc1F [I-92]
≥ 6.30 | CCOc1cc(-c2nc(Nc3ncc(-c4cccs4)cc3C(=O)O)sc2CC(C)(C)C)ccc1Cl [I-93]
≥ 6.30 | CC(C)COc1cc(-c2nc(Nc3ncc(-c4cccs4)cc3C(=O)O)sc2CC(C)(C)C)ccc1F [I-96]
≥ 6.30 | CC(C)COc1cc(-c2nc(Nc3ncc(-c4cccs4)cc3C(=O)O)sc2CC(C)(C)C)ccc1Cl [I-97]
≥ 6.30 | CC(C)Cc1sc(Nc2ncc(-c3cccs3)cc2C(=O)O)nc1-c1cccc(OCC(F)(F)F)c1 [I-102]

pIC50 | SMILES
≥ 6.30 | COc1cc(-c2nc(Nc3ncc(-c4cccs4)cc3C(=O)O)sc2CC(C)C)cc(C(F)(F)F)c1 [I-104, 2-((5-isobutyl-4-(3-methoxy-5-(trifluoromethyl)phenyl)thiazol-2-yl)amino)-5-(thiophen-2-yl)nicotinic acid]
≥ 6.30 | CCOc1cccc(-c2nc(Nc3ncc(-c4cccs4)cc3C(=O)O)sc2CCC(C)C)c1 [I-105]
≥ 6.30 | CCCOc1cccc(-c2nc(Nc3ncc(-c4cccs4)cc3C(=O)O)sc2CC(C)C)c1 [I-106]
≥ 6.30 | COc1cc(-c2nc(Nc3ncc(-c4cccs4)cc3C(=O)O)sc2CC(C)C)ccc1C [I-107]
≥ 6.30 | COc1cc(-c2nc(Nc3ncc(-c4cccs4)cc3C(=O)O)sc2CCC(C)C)ccc1C [I-108]
≥ 6.30 | CCc1ccc(-c2nc(Nc3ncc(-c4cccs4)cc3C(=O)O)sc2CC(C)C)cc1OC [I-110]
6.00 to 6.30 | CC(C)Cc1sc(Nc2ncc(-c3cccs3)cc2C(=O)O)nc1-c1cccc(O)c1 [I-111]
≥ 6.30 | CC(C)Cc1sc(Nc2ncc(-c3cccs3)cc2C(=O)O)nc1-c1cccc(OC(C)C)c1 [I-113]
≥ 6.30 | Cc1ccc(-c2nc(Nc3ncc(-c4cccs4)cc3C(=O)O)sc2CC(C)C)cc1OC(C)C [I-114]
< 6.00 | CC(C)Cc1sc(Nc2ncc(-c3cccs3)cc2C(=O)O)nc1-c1cccc(OCCOCCN(C)C)c1 [I-116]
< 6.00 | CCN(CC)CCOCCOc1cccc(-c2nc(Nc3ncc(-c4cccs4)cc3C(=O)O)sc2CC(C)C)c1 [I-117]
≥ 6.30 | CCc1cccc(-c2nc(Nc3ncc(-c4cccs4)cc3C(=O)O)sc2CC(C)C)c1 [I-123]
≥ 6.30 | CC(C)Cc1sc(Nc2ncc(-c3cccs3)cc2C(=O)O)nc1-c1ccsc1 [I-127]
≥ 6.30 | CC(C)Cc1sc(Nc2ncc(-c3cccs3)cc2C(=O)O)nc1-c1cccc(Oc2ccccc2)c1 [I-129, 2-((5-isobutyl-4-(3-phenoxyphenyl)thiazol-2-yl)amino)-5-(thiophen-2-yl)nicotinic acid]
≥ 6.30 | Cc1ccc(-c2nc(Nc3ncc(-c4cccs4)cc3C(=O)O)sc2CC(C)C)s1 [I-141]
< 6.00 | COCCOc1cccc(-c2nc(Nc3ncc(-c4cccs4)cc3C(=O)OC)sc2CC(C)C)c1 [I-148, methyl 2-((5-isobutyl-4-(3-(2-methoxyethoxy)phenyl)thiazol-2-yl)amino)-5-(thiophen-2-yl)nicotinate]
